In US11390624B2, “Pyrazolopyridines and triazolopyridines as A2A / A2B inhibitors” (Incyte Corporation, priority 2019, dated 2022) one finds EC50 and Ki data, which are given here for 22 compounds.

Molecules are shown by their SMILES.

The target in assay [1] is human adenosine A2B receptor (Homo sapiens (Human), UniProt P29275). Put plainly: Adenosine A2B Receptor Cyclic AMP GS Assay. Particulars: HEK-293 cells, agonist NECA at 12 nM, cAMP accumulation; read-out: A2B—cAMP_EC50. The assay is classed as cell-based. On the procedure:
Stably transfected HEK-293 cells expressing the human adenosine A2B receptor (Perkin Elmer) were maintained in MEM culture medium with 10% FBS and 100 μg/mL Geneticin (Life Technologies). 18 to 24 hours prior to assay, geneticin was removed from culture. The cisbio cAMP-GS Dynamic kit utilizing the FRET (Fluorescence Resonance Energy Transfer) technology was used to measure cAMP accumulation in the cells. Compounds of the present disclosure at an appropriate concentration were mixed with 10000 cells/well in white 96 well half area plates (Perkin Elmer) for 30 min at room temperature gently shaking. Agonist, NECA (R&D Technologies) at 12 nM was added to each well for 60 min at room temperature gently shaking. Detection reagents, d2-labeled cAMP (acceptor) and anti-cAMP cryptate (donor) were added to each well for 60 min at RT gently shaking. Plates were read on Pherastar (BMG Labtech), fluorescence ratio 665/620 was calculated and EC50 determination was performed by fitting the curve of percent of control versus the log of the compound concentration using GraphPad Prism.
For orientation: cAMP levels reflect the balance of adenylyl cyclase and phosphodiesterase activity.

In assay [2] the target is Adenosine A2A receptor (Tag-lite Adenosine A2A labeled cells) (Homo sapiens (Human), UniProt P29274). Put plainly: A2A Tag-lite HTRF Assay. The assay is classed as binding. Particulars: displacement of Adenosine A2A Receptor Red antagonist fluorescent ligand, 12.5 nM. An excerpt:
The final concentration of DMSO was 1%.
A general note: In TR-FRET formats the signal depends on donor and acceptor labels being close together.

Sequence of human adenosine A2B receptor (P29275 whole entry): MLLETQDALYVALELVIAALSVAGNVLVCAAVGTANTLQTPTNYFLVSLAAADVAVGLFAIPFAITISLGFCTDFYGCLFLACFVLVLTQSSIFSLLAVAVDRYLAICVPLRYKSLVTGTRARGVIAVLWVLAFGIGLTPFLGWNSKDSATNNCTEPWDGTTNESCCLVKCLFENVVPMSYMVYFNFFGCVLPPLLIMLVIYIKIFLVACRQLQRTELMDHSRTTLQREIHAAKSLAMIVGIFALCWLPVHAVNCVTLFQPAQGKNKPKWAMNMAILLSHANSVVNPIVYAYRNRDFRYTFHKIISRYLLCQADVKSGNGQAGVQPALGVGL
Sequence of Adenosine A2A receptor (Tag-lite Adenosine A2A labeled cells) (P29274 whole entry): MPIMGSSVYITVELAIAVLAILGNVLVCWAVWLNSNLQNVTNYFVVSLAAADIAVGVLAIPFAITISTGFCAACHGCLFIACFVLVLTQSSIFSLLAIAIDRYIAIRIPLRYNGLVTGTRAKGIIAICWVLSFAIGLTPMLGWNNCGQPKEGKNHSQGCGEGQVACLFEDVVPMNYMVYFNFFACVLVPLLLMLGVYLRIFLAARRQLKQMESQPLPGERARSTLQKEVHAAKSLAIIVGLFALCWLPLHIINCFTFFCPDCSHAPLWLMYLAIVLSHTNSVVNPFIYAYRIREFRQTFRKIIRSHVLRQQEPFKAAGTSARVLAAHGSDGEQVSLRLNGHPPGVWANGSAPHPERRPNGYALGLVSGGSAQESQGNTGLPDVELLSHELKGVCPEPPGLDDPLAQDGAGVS

Take `N#Cc1cccc(-c2nc(N)c3cn(Cc4ccccn4)nc3c2-c2ccncn2)c1` [Example 1, 3-(4-amino-2-(pyridin-2-ylmethyl)-7-(pyrimidin-4-yl)-2H-pyrazolo[4,3-c]pyridin-6-yl)benzonitrile]: the EC50 in assay [1] was 10 to 100 nM. In assay [2], the Ki (usually the dissociation constant of the complex between target and ligand, obtained from inhibition or displacement) is no more than 10 nM.
On to `CCn1nccc1-c1c(-c2cccc(C#N)c2)nc(N)c2cn(Cc3ccccn3)nc12` [Example 2, 3-(4-amino-7-(1-ethyl-1H-pyrazol-5-yl)-2-(pyridin-2-ylmethyl)-2H-pyrazolo[4,3-c]pyridin-6-yl)benzonitrile], for which, in assay [1], the EC50 is no more than 10 nM. The same compound showed a Ki in assay [2] of no more than 10 nM.
In the case of `N#Cc1cccc(-c2nc(N)c3cn(Cc4ncccc4F)nc3c2-c2ccncn2)c1` [Example 3, 3-(4-amino-2-((3-fluoropyridin-2-yl)methyl)-7-(pyrimidin-4-yl)-2H-pyrazolo[4,3-c]pyridin-6-yl)benzonitrile], in assay [1], the EC50 was 10 to 100 nM. In assay [2], this compound showed a Ki of no more than 10 nM.
Consider `Cn1ccc(Cn2cc3c(N)nc(-c4cccc(C#N)c4)c(-c4ccncn4)c3n2)n1` [Example 4, 3-(4-amino-2-((1-methyl-1H-pyrazol-3-yl)methyl)-7-(pyrimidin-4-yl)-2H-pyrazolo[4,3-c]pyridin-6-yl)benzonitrile], for which, in assay [1], the EC50 was in the range of 10 to 100 nM. This compound also showed a Ki in assay [2] of no more than 10 nM.
For the compound `N#Cc1cccc(-c2nc(N)c3cn(Cc4ccccn4)nc3c2-c2ccncc2)c1` [Example 6, 3-(4-amino-2-(pyridin-2-ylmethyl)-7-(pyridin-4-yl)-2H-pyrazolo[4,3-c]pyridin-6-yl)benzonitrile], in assay [1], the EC50 is no more than 10 nM. The same compound returned a Ki in assay [2] of no more than 10 nM.
Take `N#Cc1cccc(-c2nc(N)c3cn(Cc4ccccc4F)nc3c2-c2ccncn2)c1` [Example 7, 3-(4-amino-2-(2-fluorobenzyl)-7-(pyrimidin-4-yl)-2H-pyrazolo[4,3-c]pyridin-6-yl)benzonitrile]: the EC50 in assay [1] was no more than 10 nM. The compound also displayed a Ki in assay [2] of no more than 10 nM.
Consider `N#Cc1cccc(-c2nc(N)c3nn(Cc4ccccn4)cc3c2-c2ccncn2)c1` [Example 8, 3-(7-amino-2-(pyridin-2-ylmethyl)-4-(pyrimidin-4-yl)-2H-pyrazolo[3,4-c]pyridin-5-yl)benzonitrile], for which the EC50 in assay [1] was no more than 10 nM. The Ki in assay [2] was no more than 10 nM.
On to `CCn1nccc1-c1c(-c2cccc(C#N)c2)nc(N)c2nn(Cc3ccccn3)cc12` [Example 9, 3-(7-amino-4-(1-ethyl-1H-pyrazol-5-yl)-2-(pyridin-2-ylmethyl)-2H-pyrazolo[3,4-c]pyridin-5-yl)benzonitrile], for which, in assay [1], the EC50 is no more than 10 nM. This compound registered a Ki in assay [2] of no more than 10 nM.
On to `Cc1cccc(Cn2cc3c(-c4ccncn4)c(-c4cccc(C#N)c4)nc(N)c3n2)n1` [Example 10, 3-(7-amino-2-((6-methylpyridin-2-yl)methyl)-4-(pyrimidin-4-yl)-2H-pyrazolo[3,4-c]pyridin-5-yl)benzonitrile], for which, in assay [1], the EC50 is no more than 10 nM. For the same compound, in assay [2], the Ki was no more than 10 nM.
For the compound `CCn1nccc1-c1c(-c2cccc(C#N)c2)nc(N)c2nn(Cc3cccc(C)n3)cc12` [Example 11, 3-(7-amino-4-(1-ethyl-1H-pyrazol-5-yl)-2-((6-methylpyridin-2-yl)methyl)-2H-pyrazolo[3,4-c]pyridin-5-yl)benzonitrile], in assay [1], the EC50 was 10 to 100 nM. In addition, the Ki in assay [2] was no more than 10 nM.
Take `Cc1ncoc1-c1c(-c2cccc(C#N)c2)nc(N)c2nn(Cc3ccccn3)cc12` [Example 12, 3-(7-amino-4-(4-methyloxazol-5-yl)-2-(pyridin-2-ylmethyl)-2H-pyrazolo[3,4-c]pyridin-5-yl)benzonitrile]: in assay [1], the EC50 is 10 to 100 nM. Moreover, the Ki in assay [2] is no more than 10 nM.
In the case of `Cc1cccc(Cn2cc3c(-c4ocnc4C)c(-c4cccc(C#N)c4)nc(N)c3n2)n1` [Example 13], the EC50 in assay [1] fell in the range of 10 to 100 nM. This compound also displayed a Ki in assay [2] of no more than 10 nM.
As for `CCn1nccc1-c1c(-c2cccc(C#N)c2)nc(N)c2nn(Cc3ncccc3F)cc12` [Example 14, 3-(7-amino-4-(1-ethyl-1H-pyrazol-5-yl)-2-((3-fluoropyridin-2-yl)methyl)-2H-pyrazolo[3,4-c]pyridin-5-yl)benzonitrile], the EC50 in assay [1] was no more than 10 nM. The compound further gave a Ki in assay [2] of no more than 10 nM.
Regarding `N#Cc1cccc(-c2nc(N)c3nn(Cc4ccccn4)nc3c2-c2ccncn2)c1` [Example 16, 3-(4-amino-2-(pyridin-2-ylmethyl)-7-(pyrimidin-4-yl)-2H-[1,2,3]triazolo[4,5-c]pyridin-6-yl)benzonitrile], in assay [1], the EC50 was no more than 10 nM. Also, the Ki in assay [2] is no more than 10 nM.
As to `Cc1ncoc1-c1c(-c2cccc(C#N)c2)nc(N)c2nn(Cc3ccccn3)nc12` [Example 17, 3-(4-amino-7-(4-methyloxazol-5-yl)-2-(pyridin-2-ylmethyl)-2H-[1,2,3]triazolo[4,5-c]pyridin-6-yl)benzonitrile], the EC50 in assay [1] is no more than 10 nM. The compound also registered a Ki in assay [2] of no more than 10 nM.
As to `CCn1nccc1-c1c(-c2cccc(C#N)c2)nc(N)c2nn(Cc3ccccn3)nc12` [Example 18, 3-(4-amino-7-(1-ethyl-1H-pyrazol-5-yl)-2-(pyridin-2-ylmethyl)-2H-[1,2,3]triazolo[4,5-c]pyridin-6-yl)benzonitrile], the EC50 in assay [1] is no more than 10 nM. This compound also had a Ki in assay [2] of no more than 10 nM.
Take `Cc1cnccc1-c1c(-c2cccc(C#N)c2)nc(N)c2nn(Cc3ccccn3)nc12` [Example 19, 3-(4-amino-7-(3-methylpyridin-4-yl)-2-(pyridin-2-ylmethyl)-2H-[1,2,3]triazolo[4,5-c]pyridin-6-yl)benzonitrile]: the EC50 in assay [1] is no more than 10 nM. The same compound had a Ki in assay [2] of no more than 10 nM.
With `Cc1nc(CO)c(-c2c(-c3cccc(C#N)c3)nc(N)c3nn(Cc4ccccn4)nc23)o1` [Example 20, 3-(4-amino-7-(4-(hydroxymethyl)-2-methyloxazol-5-yl)-2-(pyridin-2-ylmethyl)-2H-[1,2,3]triazolo[4,5-c]pyridin-6-yl)benzonitrile], the EC50 in assay [1] was no more than 10 nM. Besides, in assay [2], the Ki is no more than 10 nM.
Regarding `N#Cc1cccc(-c2nc(N)c3nn(Cc4ccccn4)nc3c2-c2cnco2)c1` [Example 21, 3-(4-amino-7-(oxazol-5-yl)-2-(pyridin-2-ylmethyl)-2H-[1,2,3]triazolo[4,5-c]pyridin-6-yl)benzonitrile], the EC50 in assay [1] is no more than 10 nM. Moreover, in assay [2], the Ki was no more than 10 nM.
On to `N#Cc1cccc(-c2nc(N)c3nn(Cc4ccccn4)nc3c2-c2ccc3ncccc3c2)c1` [Example 22, 3-(4-amino-2-(pyridin-2-ylmethyl)-7-(quinolin-6-yl)-2H-[1,2,3]triazolo[4,5-c]pyridin-6-yl)benzonitrile], for which, in assay [1], the EC50 was no more than 10 nM. Further, in assay [2], the Ki was no more than 10 nM.
As for `N#Cc1cccc(-c2nc(N)c3nn(Cc4ccccn4)nc3c2-c2ccc3nccnc3c2)c1` [Example 23, 3-(4-amino-2-(pyridin-2-ylmethyl)-7-(quinoxalin-6-yl)-2H-[1,2,3]triazolo[4,5-c]pyridin-6-yl)benzonitrile], the EC50 in assay [1] lay within 100 to 1000 nM. This compound had a Ki in assay [2] of no more than 10 nM.
Take `Cc1cccc(Cn2nc3c(N)nc(-c4cccc(C#N)c4)c(-c4ccncn4)c3n2)n1` [Example 24, 3-(4-amino-2-((6-methylpyridin-2-yl)methyl)-7-(pyrimidin-4-yl)-2H-[1,2,3]triazolo[4,5-c]pyridin-6-yl)benzonitrile]: the EC50 in assay [1] was no more than 10 nM. In addition, in assay [2], the Ki is no more than 10 nM.
